Numbers after ± are expanded uncertainties.
Assay: molar heat capacity at constant volume
Details: Fluid (supercritical or subcritical phases), Vacuum adiabatic calorimetry

CC(C)O [propan-2-ol]
Details	molar heat capacity at constant volume [J/K/mol]
509.12 K, Mass density=288.99 kg/m3	208.89 ± 6.2
509.12 K, Mass density=293.3 kg/m3	205.89 ± 6.2
509.12 K, Mass density=324.5 kg/m3	193.27 ± 5.8
509.13 K, Mass density=255.8 kg/m3	235.45 ± 7.1
509.21 K, Mass density=234.3 kg/m3	205.65 ± 6.2
509.21 K, Mass density=266.3 kg/m3	238.7 ± 7.2
509.21 K, Mass density=274 kg/m3	233.71 ± 7
509.21 K, Mass density=281.9 kg/m3	212.8 ± 6.4
509.22 K, Mass density=293.3 kg/m3	199.52 ± 6
509.31 K, Mass density=234.3 kg/m3	202.04 ± 6.1
509.31 K, Mass density=255.8 kg/m3	218.33 ± 6.6
509.31 K, Mass density=266.3 kg/m3	229.68 ± 6.9
509.31 K, Mass density=274 kg/m3	224.45 ± 6.7
509.31 K, Mass density=281.9 kg/m3	208.17 ± 6.2
509.31 K, Mass density=293.3 kg/m3	198.91 ± 5.9
509.35 K, Mass density=329.2 kg/m3	179.56 ± 5.4
509.4 K, Mass density=234.3 kg/m3	198.61 ± 5.9
509.4 K, Mass density=255.8 kg/m3	215.14 ± 6.5
509.4 K, Mass density=274 kg/m3	219.83 ± 6.6
509.41 K, Mass density=281.9 kg/m3	208.71 ± 6.2
509.41 K, Mass density=293.3 kg/m3	198.91 ± 5.9
509.45 K, Mass density=329.2 kg/m3	180.16 ± 5.4
509.49 K, Mass density=234.3 kg/m3	198.97 ± 5.9
509.49 K, Mass density=255.8 kg/m3	213.4 ± 6.4
509.49 K, Mass density=266.3 kg/m3	223.31 ± 6.7
509.49 K, Mass density=274 kg/m3	219.83 ± 6.6
509.49 K, Mass density=281.9 kg/m3	204.98 ± 6.1
509.55 K, Mass density=329.2 kg/m3	178.84 ± 5.3
509.59 K, Mass density=234.3 kg/m3	196.21 ± 5.9
509.59 K, Mass density=255.8 kg/m3	210.09 ± 6.3
509.59 K, Mass density=266.3 kg/m3	219.59 ± 6.6
509.59 K, Mass density=274 kg/m3	215.2 ± 6.5
509.59 K, Mass density=324.5 kg/m3	183.83 ± 5.5
509.64 K, Mass density=329.2 kg/m3	179.98 ± 5.4
509.68 K, Mass density=234.3 kg/m3	196.87 ± 5.9
509.68 K, Mass density=255.8 kg/m3	209.01 ± 6.2
509.68 K, Mass density=266.3 kg/m3	217 ± 6.5
509.68 K, Mass density=274 kg/m3	213.04 ± 6.4
509.68 K, Mass density=324.5 kg/m3	191.16 ± 5.8
509.77 K, Mass density=234.3 kg/m3	196.09 ± 5.9
509.77 K, Mass density=255.8 kg/m3	206.37 ± 6.2
509.77 K, Mass density=266.3 kg/m3	209.67 ± 6.3
509.77 K, Mass density=274 kg/m3	213.04 ± 6.4
509.77 K, Mass density=324.5 kg/m3	189.06 ± 5.6
509.79 K, Mass density=329.2 kg/m3	177.46 ± 5.3
509.86 K, Mass density=234.3 kg/m3	195.79 ± 5.9
509.86 K, Mass density=255.8 kg/m3	204.2 ± 6.1
509.86 K, Mass density=266.3 kg/m3	209.67 ± 6.3
509.86 K, Mass density=274 kg/m3	208.41 ± 6.2
509.86 K, Mass density=293.3 kg/m3	194.17 ± 5.8
509.87 K, Mass density=324.5 kg/m3	183.23 ± 5.5
509.96 K, Mass density=255.8 kg/m3	202.1 ± 6.1
509.96 K, Mass density=266.3 kg/m3	209.67 ± 6.3
509.96 K, Mass density=274 kg/m3	204.8 ± 6.1
509.96 K, Mass density=281.9 kg/m3	202.4 ± 6.1
509.96 K, Mass density=293.3 kg/m3	192.18 ± 5.8
509.96 K, Mass density=324.5 kg/m3	187.5 ± 5.6
509.99 K, Mass density=329.2 kg/m3	177.28 ± 5.3
510.05 K, Mass density=255.8 kg/m3	200 ± 6
510.05 K, Mass density=266.3 kg/m3	209.73 ± 6.3
510.05 K, Mass density=274 kg/m3	203.84 ± 6.1
510.05 K, Mass density=281.9 kg/m3	206.97 ± 6.2
510.05 K, Mass density=293.3 kg/m3	195.37 ± 5.9
510.05 K, Mass density=324.5 kg/m3	181.31 ± 5.5
510.05 K, Mass density=343.1 kg/m3	174.7 ± 5.2
510.14 K, Mass density=255.8 kg/m3	198.91 ± 5.9
510.14 K, Mass density=266.3 kg/m3	211.53 ± 6.4
510.14 K, Mass density=274 kg/m3	203.36 ± 6.1
510.14 K, Mass density=281.9 kg/m3	197.95 ± 5.9
510.14 K, Mass density=293.3 kg/m3	191.4 ± 5.8
510.14 K, Mass density=324.5 kg/m3	187.92 ± 5.6
510.14 K, Mass density=329.2 kg/m3	178.12 ± 5.3
510.14 K, Mass density=343.1 kg/m3	178.42 ± 5.3
510.23 K, Mass density=329.2 kg/m3	177.94 ± 5.3
510.24 K, Mass density=274 kg/m3	204.02 ± 6.1
510.24 K, Mass density=281.9 kg/m3	197.95 ± 5.9
510.24 K, Mass density=293.3 kg/m3	198.43 ± 5.9
510.24 K, Mass density=324.5 kg/m3	181.85 ± 5.5
510.24 K, Mass density=343.1 kg/m3	185.87 ± 5.6
510.33 K, Mass density=274 kg/m3	202.52 ± 6.1
510.33 K, Mass density=281.9 kg/m3	193.45 ± 5.8
510.33 K, Mass density=293.3 kg/m3	191.1 ± 5.8
510.33 K, Mass density=324.5 kg/m3	181.73 ± 5.5
510.33 K, Mass density=329.2 kg/m3	176.68 ± 5.3
510.33 K, Mass density=343.1 kg/m3	182.15 ± 5.5
510.42 K, Mass density=274 kg/m3	204.68 ± 6.1
510.42 K, Mass density=281.9 kg/m3	198.01 ± 5.9
510.42 K, Mass density=293.3 kg/m3	187.02 ± 5.6
510.42 K, Mass density=324.5 kg/m3	183.05 ± 5.5
510.42 K, Mass density=343.1 kg/m3	178.48 ± 5.3
510.48 K, Mass density=329.2 kg/m3	178.6 ± 5.3
510.51 K, Mass density=281.9 kg/m3	193.69 ± 5.8
510.52 K, Mass density=293.3 kg/m3	192.91 ± 5.8
510.52 K, Mass density=343.1 kg/m3	174.76 ± 5.2
510.61 K, Mass density=281.9 kg/m3	198.13 ± 5.9
510.61 K, Mass density=293.3 kg/m3	186.78 ± 5.6
510.61 K, Mass density=343.1 kg/m3	182.21 ± 5.5
510.7 K, Mass density=281.9 kg/m3	193.39 ± 5.8
510.7 K, Mass density=343.1 kg/m3	185.93 ± 5.6
510.79 K, Mass density=281.9 kg/m3	196.69 ± 5.9
510.79 K, Mass density=343.1 kg/m3	177.04 ± 5.3
510.89 K, Mass density=281.9 kg/m3	193.39 ± 5.8
510.98 K, Mass density=281.9 kg/m3	188.88 ± 5.6
511.07 K, Mass density=281.9 kg/m3	188.94 ± 5.6
511.16 K, Mass density=281.9 kg/m3	193.51 ± 5.8
511.26 K, Mass density=281.9 kg/m3	188.94 ± 5.6
511.35 K, Mass density=281.9 kg/m3	192.78 ± 5.8
511.44 K, Mass density=281.9 kg/m3	189 ± 5.6
511.53 K, Mass density=281.9 kg/m3	191.7 ± 5.8
515.15 K, Mass density=293.3 kg/m3	182.39 ± 5.5
515.24 K, Mass density=293.3 kg/m3	178.06 ± 5.3
515.33 K, Mass density=293.3 kg/m3	182.39 ± 5.5
515.42 K, Mass density=293.3 kg/m3	173.67 ± 5.2
515.51 K, Mass density=293.3 kg/m3	178.06 ± 5.3
515.61 K, Mass density=293.3 kg/m3	173.73 ± 5.2
515.7 K, Mass density=293.3 kg/m3	178.12 ± 5.3
515.79 K, Mass density=293.3 kg/m3	185.39 ± 5.6
515.88 K, Mass density=293.3 kg/m3	178.12 ± 5.3
515.98 K, Mass density=234.3 kg/m3	168.75 ± 5
515.98 K, Mass density=293.3 kg/m3	174.52 ± 5.2
516.07 K, Mass density=234.3 kg/m3	174.22 ± 5.2
516.16 K, Mass density=234.3 kg/m3	168.75 ± 5
516.25 K, Mass density=234.3 kg/m3	163.28 ± 4.9
516.34 K, Mass density=234.3 kg/m3	174.28 ± 5.2
516.44 K, Mass density=234.3 kg/m3	163.88 ± 4.9
516.53 K, Mass density=234.3 kg/m3	168.81 ± 5
516.62 K, Mass density=234.3 kg/m3	168.87 ± 5
516.71 K, Mass density=234.3 kg/m3	163.4 ± 4.9
516.71 K, Mass density=281.9 kg/m3	181.31 ± 5.5
516.81 K, Mass density=234.3 kg/m3	168.87 ± 5
516.81 K, Mass density=281.9 kg/m3	181.31 ± 5.5
516.9 K, Mass density=234.3 kg/m3	168.87 ± 5
516.9 K, Mass density=281.9 kg/m3	176.74 ± 5.3
516.99 K, Mass density=281.9 kg/m3	176.8 ± 5.3
517.08 K, Mass density=281.9 kg/m3	185.87 ± 5.6
517.18 K, Mass density=281.9 kg/m3	176.8 ± 5.3
517.27 K, Mass density=281.9 kg/m3	181.19 ± 5.5
517.54 K, Mass density=274 kg/m3	189.48 ± 5.7
517.64 K, Mass density=274 kg/m3	184.79 ± 5.5
517.73 K, Mass density=274 kg/m3	180.04 ± 5.4
517.82 K, Mass density=274 kg/m3	183.77 ± 5.5
517.91 K, Mass density=274 kg/m3	180.1 ± 5.4
518 K, Mass density=274 kg/m3	187.14 ± 5.6
518.07 K, Mass density=274 kg/m3	180.1 ± 5.4
518.1 K, Mass density=274 kg/m3	183.35 ± 5.5
518.28 K, Mass density=274 kg/m3	181.73 ± 5.5
518.37 K, Mass density=274 kg/m3	182.81 ± 5.5
518.47 K, Mass density=255.8 kg/m3	166.04 ± 5
518.56 K, Mass density=255.8 kg/m3	167.12 ± 5
518.65 K, Mass density=255.8 kg/m3	169.05 ± 5.1
518.74 K, Mass density=255.8 kg/m3	166.34 ± 5
518.83 K, Mass density=255.8 kg/m3	165.14 ± 5
518.93 K, Mass density=255.8 kg/m3	167.97 ± 5
519.02 K, Mass density=255.8 kg/m3	165.14 ± 5
519.11 K, Mass density=255.8 kg/m3	170.19 ± 5.1
519.2 K, Mass density=255.8 kg/m3	165.2 ± 5
519.29 K, Mass density=255.8 kg/m3	166.64 ± 5
519.39 K, Mass density=255.8 kg/m3	168.99 ± 5
521.23 K, Mass density=293.3 kg/m3	170.43 ± 5.1
521.32 K, Mass density=293.3 kg/m3	170.43 ± 5.1
521.41 K, Mass density=293.3 kg/m3	170.43 ± 5.1
521.5 K, Mass density=293.3 kg/m3	161.66 ± 4.9
521.59 K, Mass density=293.3 kg/m3	174.88 ± 5.2
521.68 K, Mass density=293.3 kg/m3	170.49 ± 5.1
521.78 K, Mass density=293.3 kg/m3	166.34 ± 5
521.87 K, Mass density=281.9 kg/m3	173.13 ± 5.2
521.87 K, Mass density=293.3 kg/m3	169.71 ± 5.1
521.96 K, Mass density=281.9 kg/m3	168.57 ± 5
522.05 K, Mass density=281.9 kg/m3	173.19 ± 5.2
522.14 K, Mass density=281.9 kg/m3	173.19 ± 5.2
522.23 K, Mass density=281.9 kg/m3	173.19 ± 5.2
522.33 K, Mass density=281.9 kg/m3	168.63 ± 5
522.42 K, Mass density=281.9 kg/m3	171.63 ± 5.2
522.51 K, Mass density=281.9 kg/m3	173.25 ± 5.2
522.6 K, Mass density=281.9 kg/m3	168.69 ± 5
524.07 K, Mass density=274 kg/m3	171.75 ± 5.2
524.16 K, Mass density=274 kg/m3	171.75 ± 5.2
524.25 K, Mass density=274 kg/m3	176.5 ± 5.3
524.34 K, Mass density=274 kg/m3	176.5 ± 5.3
524.43 K, Mass density=274 kg/m3	176.56 ± 5.3
524.53 K, Mass density=274 kg/m3	171.81 ± 5.2
524.62 K, Mass density=274 kg/m3	176.56 ± 5.3
524.71 K, Mass density=274 kg/m3	167.12 ± 5
524.8 K, Mass density=274 kg/m3	171.87 ± 5.2

Reference: the NIST ThermoML archive (doi:10.1016/j.jct.2019.03.023)
